Data: patent US4939171A, “Sebosuppressive topical preparations” (Henkel Kommanditgesellschaft auf Aktien, priority 1987, dated 1990)

Key:
sebum [1] = experiment: Testing and evaluation of the antiseborrhoeic effect: percentage sebum reduction from browning of the backs of male rats; assay type: in vivo; settings: Rattus norvegicus, 336 h, topical, male Wistar rats, 9 applications in 2 weeks; for inhibition in vivo at 0.001 % strength: Concentration 0.001 % by weight; for inhibition in vivo at 0.005 % strength: Concentration 0.005 % by weight; for inhibition in vivo at 0.01 % strength: Concentration 0.01 % by weight; for inhibition in vivo at 0.05 % strength: Concentration 0.05 % by weight; for inhibition in vivo at 0.5 % strength: Concentration 0.5 % by weight; for inhibition in vivo at 0.1 % strength: Concentration 0.1 % by weight; for inhibition in vivo at 0.02 % strength: Concentration 0.02 % by weight
Description: The test is based on the observation that male rats secrete a brownish sebum so that the degree of greasiness of the skin may readily be visually assessed as browning of the skin. […] At the same time, only very small quantities of lipids can be extracted from the hair cut off; cf. J Soc. Cosmet. Chem. 34, 127-135 (1983)).
Male Wistar rats having a body mass of 220 to 230 grams at the beginning of the test were used as the test animals. The test substances, dissolved in a mixtures of equal volumes of ethanol and acetone, were brushed onto half of the back of each of 6 rats for each substance and concentration tested. The other half of the back of each tested rat was treated with the solvent only. One application was made on each tested rat on each of Monday through Friday of one week and on each of Monday through Thursday in the next week; the rats were then evaluated on Friday of the second week. For evaluation, the rats were shaved on their backs and flanks and visually assessed independently by a panel of examiners (6 people) under double-blind conditions. The degree of browning on the backs of the rats was visually assessed as a measure of the sebum coating. A group of six rats of the same type treated on both sides with the solvent only was used for control.
The intensities of the brown color on each control rat, and on the side of each other tested rat that had been treated with a solution containing a substance to be tested for its sebosuppressive ability, were scored according to the following scale:
The sum of the scores for the six treated rats in each group was divided by the sum of the scores for the six control rats for that group, this quotient was multiplied by 100, and that result subtracted from 100, to give the percentage sebum reduction as recorded in the tables below.

sebum [2] = settings: male rats systematically treated; cited from earlier work

Q: With CC(CCC1C(C)CCCC1(C)C)Oc1ccc(C(=O)O)cc1 (stereo not shown) [Example 1.4, 4-(4-(1,3,3-trimethyl-2-cyclohexyl)-2-butoxy)-benzoic acid] as the compound, how does the inhibition in vivo at 0.001 % strength (sebum [1]) read?
A: Its inhibition in vivo at 0.001 % strength is 73%.

Q: What about the inhibition in vivo at 0.005 % strength (sebum [1]) of the same compound?
A: The inhibition in vivo at 0.005 % strength was 88%.

Q: And the inhibition in vivo at 0.01 % strength (sebum [1])?
A: Its inhibition in vivo at 0.01 % strength is 93%.

Q: What about the inhibition in vivo at 0.05 % strength (sebum [1]) of the same compound?
A: Its inhibition in vivo at 0.05 % strength is 100%.

Q: With COC(=O)C=Cc1ccc(OCC=C(C)CCC=C(C)CCC=C(C)C)cc1 [Example 1.12, 4-farnesyloxycinnamic acid methyl ester] as the compound, how does the inhibition in vivo at 0.05 % strength (sebum [1]) read?
A: The inhibition in vivo at 0.05 % strength was 85%.

Q: Which inhibition in vivo at 0.01 % strength (sebum [1]) does the source give for CC(C)=CCCC(C)=CCCC(C)=CCOc1ccc(C(=O)O)cc1 [Example 1.16, 4-farnesyloxybenzoic acid] here?
A: The inhibition in vivo at 0.01 % strength was 69%.

Q: With C/C(=C\COc1ccc(C(=O)O)cc1)CCC[C@H](C)CCC[C@H](C)CCCC(C)C [Example 1.15, 4-phytyloxybenzoic acid] as the compound, how does the inhibition in vivo at 0.05 % strength (sebum [1]) read?
A: Its inhibition in vivo at 0.05 % strength is 35%.

Q: With O=C(O)C=Cc1ccc(OCC2CCCCC2)cc1 [Example 1.5, 4-(cyclohexylmethoxy)-cinnamic acid] as the compound, how does the inhibition in vivo at 0.5 % strength (sebum [1]) read?
A: Its inhibition in vivo at 0.5 % strength is 15%.

Q: Which inhibition in vivo at 0.1 % strength (sebum [1]) does the source give for COC(=O)c1ccc(OC/C=C(\C)CCC=C(C)C)cc1 [Example 1.9, 4-geranyloxybenzoic acid methyl ester] here?
A: Its inhibition in vivo at 0.1 % strength is 40%.

Q: For CC(C)=CCCC(C)=CCCC(C)=CCOc1ccc(CCC(=O)O)cc1 [Example 1.13, 3-(4-farnesyloxyphenyl)-propionic acid], which inhibition in vivo at 0.05 % strength (sebum [1]) is on record?
A: The inhibition in vivo at 0.05 % strength was 68%.

Q: Which inhibition in vivo at 0.05 % strength (sebum [1]) does the source give for COC(=O)CCc1ccc(OCC=C(C)CCC=C(C)CCC=C(C)C)cc1 [Example 1.11, 3-(4-farnesyloxyphenyl)-propionic acid methyl ester] here?
A: The inhibition in vivo at 0.05 % strength was 86%.

Q: For O=C(O)c1ccc(OCCCC2CCCCC2)cc1 [Example 1.6, 4-(3-cyclohexylpropyloxy)-benzoic acid], which inhibition in vivo at 0.005 % strength (sebum [1]) is on record?
A: The inhibition in vivo at 0.005 % strength was 0%.

Q: And the inhibition in vivo at 0.01 % strength (sebum [1])?
A: Its inhibition in vivo at 0.01 % strength is 52%.

Q: And the inhibition in vivo at 0.02 % strength (sebum [1])?
A: The inhibition in vivo at 0.02 % strength was 84%.

Q: Which inhibition in vivo at 0.05 % strength (sebum [1]) does the source give for CC(C)=CCCC(C)=CCCC(C)=CCOc1ccc(C=CC(=O)O)cc1 [Example 1.14, 4-farnesyloxycinnamic acid] here?
A: Its inhibition in vivo at 0.05 % strength is 73%.

Q: For COC(=O)c1ccc(OCCCC2CCCCC2)cc1 [Example 1.3, 4-(3-cyclohexylpropyloxy)-benzoic acid methyl ester], which inhibition in vivo at 0.02 % strength (sebum [1]) is on record?
A: Its inhibition in vivo at 0.02 % strength is 0%.

Q: What about the inhibition in vivo at 0.05 % strength (sebum [1]) of the same compound?
A: The inhibition in vivo at 0.05 % strength was 68%.

Q: And the inhibition in vivo at 0.5 % strength (sebum [1])?
A: The inhibition in vivo at 0.5 % strength was 99%.

Q: Which inhibition in vivo at 0.01 % strength (sebum [1]) does the source give for COC(=O)c1ccc(OC(C)CCC2C(C)CCCC2(C)C)cc1 (stereo not shown) [Example 1.1, 4-[4-(1,1,3-trimethyl-2-cyclohexyl)-2-butoxy]-benzoic acid methyl ester] here?
A: Its inhibition in vivo at 0.01 % strength is 25%.

Q: And the inhibition in vivo at 0.05 % strength (sebum [1])?
A: The inhibition in vivo at 0.05 % strength was 99%.

Q: For COC(=O)C=Cc1ccc(OCC2CCCCC2)cc1 [Example 1.2, 4-cyclohexylmethoxycinnamic acid methyl ester], which inhibition in vivo at 0.5 % strength (sebum [1]) is on record?
A: Its inhibition in vivo at 0.5 % strength is 29%.

Q: For CC#C[C@]1(O)CC[C@H]2[C@@H]3CCc4cc(O)ccc4[C@H]3CC[C@@]21C [estrogen], which “skin colour after shearing (browning by sebum)” value (sebum [2]) is on record?
A: The value was “only show the normal light, pink-colored skin after shearing”.

Q: What does the source list for OCC=Cc1ccc(OCC2CCCCC2)cc1 [Example 1.7, 4-cyclohexylmethoxycinnamic alcohol]?
A: inhibition in vivo at 0.1 % strength (sebum [1]): 53%; inhibition in vivo at 0.5 % strength (sebum [1]): 66%

Q: With COC(=O)c1ccc(OCC=C(C)CCC=C(C)CCC=C(C)C)cc1 [Example 1.8, 4-farnesyloxybenzoic acid methyl ester] as the compound, how does the inhibition in vivo at 0.01 % strength (sebum [1]) read?
A: Its inhibition in vivo at 0.01 % strength is 38%.

Q: And the inhibition in vivo at 0.05 % strength (sebum [1])?
A: Its inhibition in vivo at 0.05 % strength is 86%.

Q: For CC(C)=CCCC(C)=CCCC(C)=CCOc1ccc(CO)cc1 [Example 1.17, 4-farnesyloxybenzyl alcohol], which inhibition in vivo at 0.001 % strength (sebum [1]) is on record?
A: Its inhibition in vivo at 0.001 % strength is 14%.

Q: And the inhibition in vivo at 0.002 % strength (sebum [1]; Concentration 0.002 % by weight)?
A: The inhibition in vivo at 0.002 % strength was 18%.

Q: What about the inhibition in vivo at 0.005 % strength (sebum [1]) of the same compound?
A: The inhibition in vivo at 0.005 % strength was 72%.

Q: What about the inhibition in vivo at 0.01 % strength (sebum [1]) of the same compound?
A: Its inhibition in vivo at 0.01 % strength is 87%.

Q: What about the inhibition in vivo at 0.05 % strength (sebum [1]) of the same compound?
A: Its inhibition in vivo at 0.05 % strength is 86%.
